Reference: paper PMC6273125, “Antioxidant Activity of 3-[N-(Acylhydrazono)ethyl]-4-hydroxy-coumarins” (Molecules, 2016)
Entries after “also recorded” stand apart in the source; their conditions may differ.

Key:
[1] = Reducing activity of the DPPH stable free radical (RA%); conditions: DPPH 0.05 mM in ethanol; for RA%, 50 μM, 20 min / RA%, 50 μM, 60 min: compound 50 μM; for RA%, 100 µM, 20 min: compound 100 µM; for RA%, 100 μM, 60 min: compound 100 μM
From the text: It is well known that the interaction of the synthesized 3-acetyl-4-hydroxycoumarin N-acylhydrazones 2 with the stable free radical DPPH indicates their radical scavenging ability in an iron-free system. […] Considering the antioxidant activity of 3-acetyl-4-hydroxy coumarin (1) it seems to be higher than the hydrazone derivatives 2a–l in both concentrations and in relation with the time and it is correlated with the presence of 3-acetyl and 4-hydroxy groups in the lactone ring and the possibility of tautomers (A–D) formation as shown in Scheme 2. It has been reported that 3-acetyl-4-hydroxycoumarin mainly exists in endocyclic enol form (B) in polar solvents (methanol, ethanol) and it is well known that enols show antioxidant activity e.g., it has been reported that enolic and phenolic hydroxyl groups is beneficial for curcumin to protect erythrocytes against hemin-induced hemolysis and to protect DNA against AAPH-induced oxidation. The lower results of hydrazones 2a–l, are correlated with their stereochemistry which influence their interaction with DPPH.
To an ethanolic solution of DPPH (0.05 mM) in absolute ethanol the new coumarin derivatives dissolved in DMSO were added (final concentration 50 and 100 µM). The mixture was shaken vigorously and allowed to stand for 20 min or 60 min; absorbance at 517 nm was determined spectrophotometrically against the blank and the percentage of reducing activity (RA) was calculated by the formula: RA% = [(A0 − A1)/A0] × 100 where A0 is the absorbance of blank and A1 is the absorbance of the reaction mixture.

[2] = Inhibition of linoleic acid lipid peroxidation induced by AAPH; conditions: pH 7.4, 37 °C
From the text: AAPH induced linoleic acid oxidation is based on the inhibition of lipid oxidation and provides a measure of how efficiently antioxidants protect against lipid oxidation in vitro. Oxidation of exogenous linoleic acid by a thermal free radical producer (AAPH) is followed by UV spectrophotometry in a highly-diluted sample [36, 42].
Production of conjugated diene hydroperoxide by oxidation of linoleic acid in an aqueous dispersion is monitored at 234 nm. 2,2′-Azobis(2-amidinopropane) dihydrochloride (AAPH) is used as a free radical initiator. Ten microliters of the 16 mM linoleic acid sodium salt solution was added to the UV cuvette containing 930 µL of […] phosphate buffer, pH 7.4 prethermostated at 37 °C. The oxidation reaction was initiated at 37 °C under air by the addition of 50 μL of 40 mM AAPH solution. Oxidation was carried out in the presence of aliquots (10 μL) of the tested coumarins. In the assay without antioxidant, lipid peroxidation was measured in the presence of the same level of DMSO. The rate of oxidation at 37 °C was monitored by recording the increase in absorption at 234 nm caused by conjugated diene hydroperoxides.

[3] = biological target: T1, soybean lipoxygenase (LOX) (Glycine max, UniProt P08170); assay: In vitro inhibition of soybean lipoxygenase, UV-absorbance-based enzyme assay; assay type: biochemical; conditions: for IC50 / LOX IC50: soybean lipoxygenase, sodium linoleate, Tris buffer pH 9
T1 construct: purchased Sigma Chemical, Co. (St. Louis, MO, USA)
T1 sequence (P08170 1-839): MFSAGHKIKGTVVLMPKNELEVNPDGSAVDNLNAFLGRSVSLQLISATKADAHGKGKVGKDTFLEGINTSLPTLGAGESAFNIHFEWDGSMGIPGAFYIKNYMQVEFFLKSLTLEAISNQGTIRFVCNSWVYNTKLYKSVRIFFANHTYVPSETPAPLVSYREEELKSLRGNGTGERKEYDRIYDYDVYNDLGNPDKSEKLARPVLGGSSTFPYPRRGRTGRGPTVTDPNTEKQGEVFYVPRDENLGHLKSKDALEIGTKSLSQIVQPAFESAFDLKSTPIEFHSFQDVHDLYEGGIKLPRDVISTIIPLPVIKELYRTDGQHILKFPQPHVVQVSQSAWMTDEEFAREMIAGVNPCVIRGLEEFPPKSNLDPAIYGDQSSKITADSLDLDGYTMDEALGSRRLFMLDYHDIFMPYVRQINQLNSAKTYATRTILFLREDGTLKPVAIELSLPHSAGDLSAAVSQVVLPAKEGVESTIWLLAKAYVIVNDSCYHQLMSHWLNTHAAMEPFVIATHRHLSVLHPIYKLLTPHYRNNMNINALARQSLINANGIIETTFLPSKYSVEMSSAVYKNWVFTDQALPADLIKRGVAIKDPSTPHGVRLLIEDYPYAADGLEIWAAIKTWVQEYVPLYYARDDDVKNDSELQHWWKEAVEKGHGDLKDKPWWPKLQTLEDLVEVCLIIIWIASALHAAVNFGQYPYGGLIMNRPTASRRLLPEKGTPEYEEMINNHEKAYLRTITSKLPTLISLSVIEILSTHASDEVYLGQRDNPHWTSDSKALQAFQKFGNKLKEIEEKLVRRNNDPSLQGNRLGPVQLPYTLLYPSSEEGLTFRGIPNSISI
Protocol: The tested compounds dissolved in DMSO were incubated at room temperature with sodium linoleate (100 µL) and 200 µL of enzyme solution (1/9 × 10^−4 w/v in saline) in Tris buffer pH 9. The conversion of sodium linoleate to 13-hydroperoxylinoleic acid at 234 nm was recorded and compared with the appropriate standard inhibitor.

melting point [°C] | IC50 [3] [µM] | inhibition at 100 µM [3] [%] | LOX % inhibition ([3]; 100 µM, IC50 not determined) | SMILES | RA%, 50 μM, 20 min [1] [%] | RA%, 50 μM, 60 min [1] [%] | RA%, 100 µM, 20 min [1] [%] | RA%, 100 μM, 60 min [1] [%] | LP 60 s, 100 μM (% inhibition of LP induced by AAPH) [2] [%] | LOX IC50 [3]
254.5 to 255 | 90 ± 5.1 |  |  | CC(=NNC(=O)c1ccco1)c1c(O)c2ccccc2oc1=O [2j, 3-{N-[(2′-Furoyl)hydrazono]ethyl}-4-hydroxycoumarin] | 4 ± 0.2 | 8 ± 0.3 | 25 ± 1.8 | 27 ± 0.8 | 95 ± 4.1 | 
274 |  |  |  | CC(=NNC(=O)c1ccncc1)c1c(O)c2ccccc2oc1=O [2h, 3-[N-(Isonicotinoylhydrazono)ethyl]-4-hydroxycoumarin] | 5 ± 0.1 | 8 ± 0.2 | 27 ± 1.5 | 31 ± 1.6 | 99 ± 3.7 | do not seem to present any activity; also recorded: No ^c
228 to 228.5 | 43.5 ± 3.2 |  |  | CC(=NNC(=O)c1cccs1)c1c(O)c2ccccc2oc1=O [2k, 3-{N-[(2′-Thienylcarbonyl)hydrazono]ethyl}-4-hydroxycoumarin] | 7 ± 0.1 | 9 ± 0.2 | 25 ± 2.1 | 30 ± 2.2 | 98 ± 3.9 | 
248 to 248.5 | 55 ± 2.1 |  |  | CC(=NNC(=O)c1ccc(Cl)cc1)c1c(O)c2ccccc2oc1=O [2e, 3-{N-[(4′-Chlorobenzoyl)hydrazono]ethyl}-4-hydroxycoumarin] | 7 ± 0.2 | 10 ± 0.5 | 27 ± 0.9 | 29 ± 0.8 | 94 ± 4.8 | 
248 to 249 | 62.5 ± 2.3 |  |  | CC(=O)NN=C(C)c1c(O)c2ccccc2oc1=O [2a, 3-[N-(Acetylhydrazono)ethyl]-4-hydroxycoumarin] | 5 ± 0.2 | 7 ± 0.3 | 23 ± 3.0 | 24 ± 2.0 | 100 ± 9.8 | 
251 to 252 |  |  |  | CC(=NNC(=O)c1ccc(C)cc1)c1c(O)c2ccccc2oc1=O [2d, 3-{N-[(4′-Methylbenzoyl)hydrazono]ethyl}-4-hydroxycoumarin] | 7 ± 0.3 | 10 ± 0.2 | 27 ± 2.2 | 27 ± 1.4 | 100 ± 3.2 | do not seem to present any activity; also recorded: No ^c
256 to 257 | 46.5 ± 2.3 |  |  | CC(=NNC(=O)c1ccc(N)cc1)c1c(O)c2ccccc2oc1=O [2g, 3-{N-[(4′-Aminobenzoyl)hydrazono]ethyl}-4-hydroxycoumarin] | 9 ± 0.3 | 16 ± 0.6 | 27 ± 0.8 | 31 ± 1.4 | 95 ± 7.2 | 
 |  | 44 | low inhibitory activity | CC(=O)c1c(O)c2ccccc2oc1=O [compound 1, 3-Acetyl-4-hydroxycoumarin] | 29 ± 0.5 | 31± 0.3 | 36± 1.3 | 36 ± 0.8 |  | 

Second part, the compound before the results:

SMILES | melting point [°C] | IC50 [3] [µM] | inhibition at 100 µM [3] [%] | LOX % inhibition ([3]; 100 µM, IC50 not determined) | RA%, 50 μM, 20 min [1] [%] | RA%, 50 μM, 60 min [1] [%] | RA%, 100 µM, 20 min [1] [%] | RA%, 100 μM, 60 min [1] [%] | LP 60 s, 100 μM (% inhibition of LP induced by AAPH) [2] [%] | LOX IC50 [3]
CC(=NNC(=O)Cc1ccccc1)c1c(O)c2ccccc2oc1=O [2b, 3-[N-(Phenylacetylhydrazono)ethyl]-4-hydroxycoumarin] | 216 to 217 | 40 ± 0.5 |  |  | 4 ± 0.2 | 7 ± 0.1 | 25 ± 2.0 | 29 ± 1.1 | 100 ± 5.5 | 
CC(=NNC(=O)c1ccccc1)c1c(O)c2ccccc2oc1=O [2c, 3-[N-(Benzoylhydrazono)ethyl]-4-hydroxycoumarin] |  | 58 ± 2.7 |  |  | 5 ± 0.1 | 7 ± 0.4 | 25 ± 1.2 | 30 ± 2.8 | 98 ± 5.4 | 
CC(Cc1ccc(O)c(O)c1)C(C)Cc1ccc(O)c(O)c1 (stereo not drawn) [NDGA, nordihydroguairetic acid, reference compound] |  |  |  |  | 84 ± 2.0 | 83 ± 3.3 | 81 ± 5.2 | 83 ± 4.7 |  | 
Cc1c(C)c2c(c(C)c1O)CCC(C)(C(=O)O)O2 (stereo not drawn) [TROLOX, trolox, reference compound] |  |  |  |  |  |  |  |  | 63 ± 0.2 | 
CC(=NNC(=O)c1ccccc1O)c1c(O)c2ccccc2oc1=O [2i, 3-{N-[(2′-Hydroxybenzoyl)hydrazono]ethyl}-4-hydroxycoumarin] | 271 to 272 | 49.5 ± 1.2 |  |  | 8 ± 0.5 | 10 ± 0.1 | 27 ± 0.2 | 29 ± 1.7 | 100 ± 8.2 | 
CC(=NNC(=O)c1ccc(O)cc1)c1c(O)c2ccccc2oc1=O [2f, 3-{N-[(4′-Hydroxybenzoyl)hydrazono]ethyl}-4-hydroxycoumarin] | 287 to 288 | 70 ± 4.3 |  |  | 10 ± 0.5 | 14 ± 1.2 | 24 ± 2.2 | 26 ± 1.2 | 98 ± 2.9 | 
